One data set concerns SKOV-3 cell line. Nature of the data set: Antiproliferative effect against the SKOV-3 cell line (GI50, cell count). The data set is classed as cell-based, human. The conditions noted are these: for GI50: Homo sapiens, SK-OV-3, 72 h. The method, then: (§1) SKOV-3, A2780 and A2780 CIS were cultured and maintained, as previously described,[50] at 37 °C in RPMI 1640 medium (Euroclone) supplemented with 10% fetal bovine serum (FBS; Euroclone), L-glutamine and penicillin/streptomycin (SIGMA-ALDRICH). OVCA433, HEK-293T, HeLa, HCCLM3, SK-Hep-1, MCF-7, A549 and HCT-116 cells were maintained in DMEM medium (Euroclone) containing 10% FBS (Euroclone), L-glutamine and penicillin/streptomycin (SIGMA-ALDRICH). Wi-38 cells were cultured in DMEM medium (Euroclone) supplemented with 10% FBS (Euroclone), L-glutamine and penicillin/streptomycin (SIGMA-ALDRICH), and 1% non-essential amino acids (NEAA; Euroclone). The cultures were maintained in a constant temperature incubator at 37 °C with 5% CO2. […] Once cell adhesion had been promoted, the compounds were added to the culture medium. After 72 hours of treatment, the cells were counted, and the data analyzed by linear regression. Each experiment was carried out three times in triplicate and three separate cell counts were made for each sample. […] Afterwards, the concentration range was narrowed to the relative value obtained in the first evaluation in order to obtain an accurate value.

The next data set relates to miRNA processing / RNAi. The arrangement: method as in PMID 18641635. To be noted: cited from earlier work.
The nature of data set [1]: Cytotoxicity against non-tumor Wi-38 cells (CC50, cell count). The conditions noted are these: human, Wi-38 cells (non-tumor), 50% cytotoxicity concentration, 72 hours of treatment. The format is cell-based. As to the method: as §1
For data set [2], the system named is cisplatin-resistant A2780 cells (A2780 CIS). Nature of the data set: Viable cells of cisplatin-resistant A2780 (A2780 CIS) treated with 33, cisplatin or both. The format is cell-based, human. The conditions noted are these: cisplatin 1 μM, 48 hours. As to the method:
A2780 and SKOV-3 cells were treated with 50 μM of 33 for 72 h before RNA and protein extraction and expression analyses. A2780 and A2780 CIS were treated with 33 (30 μM) and/or cisplatin (1 μM, Sigma-Aldrich) for 48 hours while MCF-7, A549 and HCT-116 were treated with 33 (30 μM) for 72 hours. Total cell number and viability have been assessed using Trypan Blue Solution (Thermo Fisher Scientific) and Countess™ 3 Automated Cell Counter (Thermo Fisher Scientific).

[3] abbreviates: 50% cell growth inhibition, 72 hours of treatment, cell count, ND = activity not dose dependent.

The term GI50 denotes the concentration at which growth is held to half of that of the control. Read a high GI50 as less potent growth inhibition. In general, CC50 refers to the concentration giving 50% cytotoxicity. Higher therefore signals better tolerance by the cells.

With `NC(=O)c1cn(C2CC2)c2cc(N3CCc4ccccc4C3)c(N)cc2c1=O` [Compound 17, 6-Amino-1-cyclopropyl-7-(3,4-dihydroisoquinolin-2(1H)-yl)-4-oxo-1,4-dihydroquinoline-3-carboxamide], the “GI50 SKOV-3” value in the data set with SKOV-3 cell line (setting [3]) was “completely inactive”.
With `Nc1cc2c(=O)c(C(=O)O)cn(C3CC3)c2cc1N1Cc2ccccc2C[C@H]1CO` [Compound 23, 6-Amino-1-cyclopropyl-7-[(3S)-3-(hydroxymethyl)-3,4-dihydroisoquinolin-2(1H)-yl]-4-oxo-1,4-dihydroquinoline-3-carboxylic acid], in the data set with SKOV-3 cell line (setting [3]), the GI50 was 46.2 ± 8.38 µM.
As to `O=C(O)c1cn(C2CC2)c2cc(N3CCNCC3)c(F)cc2c1=O` [ciprofloxacin], the “RNAi enhancer / SMER effect” value in the data set on miRNA processing / RNAi is reported as “very weak SMER”.
Turning to `Nc1cc2c(=O)c(C(=O)O)cn(C3CC3)c2cc1N1CCNc2ccccc21` [Compound 20, 6-Amino-1-cyclopropyl-7-(3,4-dihydroquinoxalin-1(2H)-yl)-4-oxo-1,4-dihydroquinoline-3-carboxylic acid], the GI50 with SKOV-3 cell line (setting [3]) came out at 65.4 ± 24.3 µM.
`CCn1cc(C(=O)O)c(=O)c2cc(F)c(N3CCC(c4ccccc4)CC3)nc21` [Compound 30, 1-Ethyl-6-fluoro-4-oxo-7-(4-phenylpiperidin-1-yl)-1,4-dihydro-1,8-naphthyridine-3-carboxylic acid] returned a GI50 in the data set on SKOV-3 cell line (setting [3]) of 8.34 ± 1.28 µM. Also, the midpoint of cytotoxicity in data set [1], the CC50 at 72 h, lay at 4.65 ± 5.96 µM.
Consider `Nc1cc2c(=O)c(C(=O)O)cn(C3CC3)c2cc1N1CCc2ncncc2C1` [Compound 18, 6-Amino-1-cyclopropyl-7-(7,8-dihydropyrido[4,3-d]pyrimidin-6(5H)-yl)-4-oxo-1,4-dihydroquinoline-3-carboxylic acid], for which halving of growth with SKOV-3 cell line (setting [3]) (GI50) required 152 ± 3.05 µM.
The compound `Nc1cc2c(=O)c(C(=O)O)cn(C3CC3)c2cc1N1CCC(c2ccccc2)CC1` [Compound 24, 6-Amino-1-cyclopropyl-4-oxo-7-(4-phenylpiperidin-1-yl)-1,4-dihydroquinoline-3-carboxylic acid] displayed a GI50 with SKOV-3 cell line (setting [3]) of 9.19 ± 1.05 µM. The midpoint of cytotoxicity in data set [1], the CC50 at 72 h, lay at 45 ± 13.4 µM.
In the data set on SKOV-3 cell line (setting [3]), `CCn1cc(C(=O)O)c(=O)c2cc(F)c(N3CCc4ccccc4C3)c(C)c21` [Compound 31, 7-(3,4-Dihydroisoquinolin-2(1H)-yl)-1-ethyl-6-fluoro-8-methyl-4-oxo-1,4-dihydroquinoline-3-carboxylic acid] came in with a GI50 of 14.9 ± 3.24 µM. In addition, the CC50 at 72 h in data set [1] was 56.6 ± 37.4 µM.
As to `CCn1cc(C(=O)O)c(=O)c2cc(N)c(N3CCc4ccccc4C3)cc21` [Compound 16, 6-Amino-7-(3,4-dihydroisoquinolin-2(1H)-yl)-1-ethyl-4-oxo-1,4-dihydroquinoline-3-carboxylic acid], the GI50 in the data set on SKOV-3 cell line (setting [3]) was 5.44 ± 0.13 µM. Also, the CC50 at 72 h in data set [1] was 8.19 ± 14.3 µM.
On to `Nc1cc2c(=O)c(C(=O)O)cn(C3CC3)c2cc1N(CCO)Cc1ccccc1` [Compound 26, 6-Amino-7-[benzyl(2-hydroxyethyl)amino]-1-cyclopropyl-4-oxo-1,4-dihydroquinoline-3-carboxylic acid], for which, in the data set with SKOV-3 cell line (setting [3]), growth was halved (GI50) at 33.9 ± 6.43 µM. Moreover, in the data set on SKOV-3 cell line (versus compound 25), the “fold increase in GI50 SKOV-3 versus 25” value is recorded as 2 fold.
`CCn1cc(C(=O)O)c(=O)c2cc(N)c(N3CCc4ccccc4C3)c(C)c21` [Compound 11, 6-Amino-7-(3,4-dihydroisoquinolin-2(1H)-yl)-1-ethyl-8-methyl-4-oxo-1,4-dihydroquinoline-3-carboxylic acid] registered a GI50 in the data set on SKOV-3 cell line (setting [3]) of 13.1 ± 1.29 µM. Besides, the “fold more toxic against tumor cells (CC50 Wi-38 vs GI50 SKOV-3)” value in the data set on SKOV-3 cell line (SKOV-3 versus Wi-38) was “approximately 4 fold”. This compound also showed a CC50 at 72 h in data set [1] of 53.5 ± 20.6 µM.
`CCN(Cc1ccccc1)c1cc2c(cc1N)c(=O)c(C(=O)O)cn2C1CC1` [Compound 25, 6-Amino-7-[benzyl(ethyl)amino]-1-cyclopropyl-4-oxo-1,4-dihydroquinoline-3-carboxylic acid] had a GI50 in the data set with SKOV-3 cell line (setting [3]) of 16 ± 2.94 µM. The same compound showed a CC50 at 72 h in data set [1] of 79.7 ± 11.8 µM.
In the case of `Cc1c(NCCN2CCCCC2)c(N)cc2c(=O)c(C(=O)O)cn(C3CC3)c12` [Compound 14, 6-Amino-1-cyclopropyl-8-methyl-4-oxo-7-[(2-piperidin-1-ylethyl)amino]-1,4-dihydroquinoline-3-carboxylic acid], the GI50 in the data set with SKOV-3 cell line (setting [3]) worked out at 103 ± 21.6 µM.
As to `Nc1cc2c(=O)c(C(=O)O)cn(C3CC3)c2cc1N1CCc2sccc2C1` [Compound 21, 6-Amino-1-cyclopropyl-7-(6,7-dihydrothieno[3,2-c]pyridin-5(4H)-yl)-4-oxo-1,4-dihydroquinoline-3-carboxylic acid], the GI50 in the data set with SKOV-3 cell line (setting [3]) was 23.7 ± 1.02 µM. The compound also yielded a CC50 at 72 h in data set [1] of 103 ± 15.5 µM.
`Nc1cc2c(=O)c(C(=O)O)cn(C3CC3)c2cc1N1CCc2nccnc2C1` [Compound 19, 6-Amino-1-cyclopropyl-7-(7,8-dihydropyrido[3,4-b]pyrazin-6(5H)-yl)-4-oxo-1,4-dihydroquinoline-3-carboxylic acid] returned a GI50 in the data set on SKOV-3 cell line (setting [3]) of 104 ± 2.03 µM.
Same read-out and setting: next, `CN1CCN(c2c(F)cc3c(=O)c(C(=O)O)cn4c3c2SCC4)CC1` [Compound 10, rufloxacin, reference compound]: 100 µM.
For `Nc1cc2c(=O)c(C(=O)O)cn(C3CC3)c2cc1N1CCc2ccccc2C1` [Compound 15, 6-Amino-1-cyclopropyl-7-(3,4-dihydroisoquinolin-2(1H)-yl)-4-oxo-1,4-dihydroquinoline-3-carboxylic acid], it took 13.2 ± 1.13 µM to inhibit growth in the data set with SKOV-3 cell line (setting [3]) by half (GI50). In data set [1], this compound registered a CC50 at 72 h of 36.3 ± 8.86 µM.
For `Cn1cc(C(=O)O)c(=O)c2ccc(N3CCN(c4nccs4)CC3)nc21` [Compound 9], in the data set on SKOV-3 cell line (setting [3]), the GI50 turned out to be 50 µM. That is a double-digit micromolar value.
On to `Cc1c(N2Cc3ccccc3C2)c(N)cc2c(=O)c(C(=O)O)cn(C3CC3)c12` [Compound 13, 6-Amino-1-cyclopropyl-7-(1,3-dihydro-2H-isoindol-2-yl)-8-methyl-4-oxo-1,4-dihydroquinoline-3-carboxylic acid], for which the GI50 in the data set on SKOV-3 cell line (setting [3]) was 28.8 ± 4.11 µM.
For `CC1COc2c(N3CCN(C)CC3)c(F)cc3c(=O)c(C(=O)O)cn1c23` (centres unmarked) [ofloxacin], the “RNAi enhancer / SMER effect” value in the data set with miRNA processing / RNAi is on record as “did not show any significant RNAi enhancer effect”.
`CC1c2ccccc2CCN1c1cc2c(cc1N)c(=O)c(C(=O)O)cn2C1CC1` (centres unmarked) [Compound 22, 6-Amino-1-cyclopropyl-7-(1-methyl-3,4-dihydroisoquinolin-2(1H)-yl)-4-oxo-1,4-dihydroquinoline-3-carboxylic acid] came in with a GI50 with SKOV-3 cell line (setting [3]) of 18.5 ± 1.71 µM. Also, it took 59.9 ± 5.95 µM to reach half-maximal cytotoxicity in data set [1] (CC50 at 72 h).
Consider `CCN(Cc1ccccc1)c1nc2c(cc1F)c(=O)c(C(=O)O)cn2CC` [Compound 29, 7-[Benzyl(ethyl)amino]-1-ethyl-6-fluoro-4-oxo-1,4-dihydro-1,8-naphthyridine-3-carboxylic acid], for which it took 16.2 ± 1.03 µM to inhibit growth in the data set on SKOV-3 cell line (setting [3]) by half (GI50). For the same compound, the CC50 at 72 h in data set [1] worked out at 25.5 ± 11.5 µM.
As to `N.N.[Cl][Pt][Cl]` [cisplatin, reference compound], the “resistance of A2780 CIS to cisplatin compared to A2780” value in data set [2] is “significantly greater resistance to cisplatin”.
As for `Cc1c(N2CCc3ccccc3C2)c(F)cc2c(=O)c(C(=O)O)cn(C3CC3)c12` [Compound 32, 1-Cyclopropyl-7-(3,4-dihydroisoquinolin-2(1H)-yl)-6-fluoro-8-methyl-4-oxo-1,4-dihydroquinoline-3-carboxylic acid], the GI50 with SKOV-3 cell line (setting [3]) was 25 ± 6.04 µM. Further, in data set [1], the CC50 at 72 h is 90.7 ± 30.9 µM.
For `Cc1c(N2CCC(c3ccccc3)CC2)c(N)cc2c(=O)c(C(=O)O)cn(C3CC3)c12` [Compound 12, 6-Amino-1-cyclopropyl-8-methyl-4-oxo-7-(4-phenylpiperidin-1-yl)-1,4-dihydroquinoline-3-carboxylic acid], in that order: 17.1 ± 2.61 µM and 53 ± 14.9 µM.
With `Cn1cc(C(=O)O)c(=O)c2cc(N)c(N3CCN(c4nccs4)CC3)cc21` [Compound 8], in the data set with SKOV-3 cell line (setting [3]), the GI50 turned out to be 50 µM. This counts as double-digit micromolar.
In turn, `O=C(O)c1cn(C2CC2)c2nc(N3CCc4ccccc4C3)c(F)cc2c1=O` [Compound 28, 1-Cyclopropyl-7-(3,4-dihydroisoquinolin-2(1H)-yl)-6-fluoro-4-oxo-1,4-dihydro-1,8-naphthyridine-3-carboxylic acid] displayed a GI50 in the data set on SKOV-3 cell line (setting [3]) of 46.8 ± 7.44 µM.
